32 compounds from US10822337B2, “TGF-β inhibitorC” (Rigel Pharmaceuticals, Inc., priority 2015, dated 2020) can be followed below.

Assay [1] deals with GDF8 signaling (GDF pSMAD, MPC11). Put plainly: AlphaScreen SureFire SMAD3 (p-Ser423/425) assay, inhibition of GDF8 signaling. It counts as cell-based. The following applies: Mus musculus, MPC-11, p-SMAD-3 (Ser423/425) in cell lysate after GDF8 stimulation. (In general: In Alpha technology, singlet oxygen from a donor bead excites a nearby acceptor bead.)
Assay [2] has as its system TGF-β signaling (TGF-β pSMAD, MPC-11). Put plainly: AlphaScreen SureFire SMAD3 (p-Ser423/425) assay, inhibition of TGF-β signaling. The class given is cell-based. The following applies: Mus musculus, p-SMAD-3 (Ser423/425) in cell lysate after TGF-β stimulation. Put shortly:
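Cells in collagen-coated plates were pretreated about 10 minutes with three-fold DMSO serial dilutions of compound, then stimulated with TGF-β. They were lysed with about 25 μL 1× Lysis Buffer. Lysates in 384-well plates were incubated protected from light with Acceptor bead mix for 2 hours and Donor bead mix for 1½ hours. p-SMAD-3 (Ser423/425) was read on Synergy-4 or Enspire using AlphaScreen pSMAD3 settings.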

Molecules are shown by their SMILES. pIC50: −log10 of the molar value.

For `Fc1cc(F)c(-c2nn3c(c2-c2ccc4ncsc4c2)CCC3)cc1F` [Compound 116, 6-(2-(2,4,5-Trifluorophenyl)-5,6-dihydro-4H-pyrrolo[1,2-b]pyrazol-3-yl)benzo[d]thiazole], the figures for the pIC50 in assay [1] and in assay [2] were 7.56 and 6.73, respectively.

As to `Fc1cc(F)c(-c2nn3c(c2-c2ccc4ncccc4c2)CCC3)cc1F` [Compound 117, 6-(2-(2,4,5-Trifluorophenyl)-5,6-dihydro-4H-pyrrolo[1,2-b]pyrazol-3-yl)quinoline], the results for the negative logarithm of the IC50 (pIC50) in assay [1] and in assay [2] were 6.81 and 5.83, respectively.

With `Fc1cc(F)c(-c2nn3c(c2-c2ccc4nccnc4c2)CCC3)cc1F` [Compound 118, 6-(2-(2,4,5-Trifluorophenyl)-5,6-dihydro-4H-pyrrolo[1,2-b]pyrazol-3-yl)quinoxaline], the pIC50 in assay [1] was 7.01; in assay [2], 6.18.

As for `Fc1cc(F)c(-c2nn3c(c2-c2ccc4ncnn4c2)CCC3)cc1F` [Compound 119, 6-(2-(2,4,5-Trifluorophenyl)-5,6-dihydro-4H-pyrrolo[1,2-b]pyrazol-3-yl)-[1,2,4]triazolo[1,5-a]pyridine], the pIC50 in assay [1] is 7.51; in assay [2] it was 6.85.

Consider `Clc1ccccc1-c1nn2c(c1-c1ccc3ncsc3c1)CCC2` [Compound 120, 6-(2-(2-Chlorophenyl)-5,6-dihydro-4H-pyrrolo[1,2-b]pyrazol-3-yl)benzo[d]thiazole], for which the pIC50 was 6.06 in assay [1] and 5.26 in assay [2].

As for `Clc1ccccc1-c1nn2c(c1-c1ccc3ncnn3c1)CCC2` [Compound 121, 6-(2-(2-Chlorophenyl)-5,6-dihydro-4H-pyrrolo[1,2-b]pyrazol-3-yl)-[1,2,4]triazolo[1,5-a]pyridine], the negative logarithm of the IC50 (pIC50) in assay [1] was 6.47; in assay [2], 6.02.

For the compound `FC(F)(F)Oc1cccc(-c2nn3c(c2-c2ccc4[nH]ncc4c2)CCC3)c1` [Compound 122, 5-(2-(3-Trifluoromethoxyphenyl)-5,6-dihydro-4H-pyrrolo[1,2-b]pyrazol-3-yl)-1H-indazole], the pIC50 was 7.17 in assay [1] and 7.11 in assay [2].

On to `FC(F)(F)Oc1cccc(-c2nn3c(c2-c2ccc4cn[nH]c4c2)CCC3)c1` [Compound 123, 6-(2-(3-Trifluoromethoxyphenyl)-5,6-dihydro-4H-pyrrolo[1,2-b]pyrazol-3-yl)-1H-indazole], for which the negative logarithm of the IC50 (pIC50) is 7.07 in assay [1] and 6.72 in assay [2].

Turning to `FC(F)(F)Oc1cccc(-c2nn3c(c2-c2ccc4nccn4c2)CCC3)c1` [Compound 124, 6-(2-(3-Trifluoromethoxyphenyl)-5,6-dihydro-4H-pyrrolo[1,2-b]pyrazol-3-yl)imidazo[1,2-a]pyridine], the pIC50 in assay [1] is 7.27; in assay [2], 7.34.

With `FC(F)(F)Oc1cccc(-c2nn3c(c2-c2ccc4ncsc4c2)CCC3)c1` [Compound 125, 6-(2-(3-Trifluoromethoxyphenyl)-5,6-dihydro-4H-pyrrolo[1,2-b]pyrazol-3-yl)benzo[d]thiazole], the pIC50 was 6.80 in assay [1] and 6.91 in assay [2].

`FC(F)(F)Oc1cccc(-c2nn3c(c2-c2ccc4nccnc4c2)CCC3)c1` [Compound 126, 6-(2-(3-Trifluoromethoxyphenyl)-5,6-dihydro-4H-pyrrolo[1,2-b]pyrazol-3-yl)quinoxaline]: the figures for the negative-log IC50 (pIC50) in assay [1] and in assay [2] were 6.81 and 6.65, respectively.

Take `FC(F)(F)Oc1cccc(-c2nn3c(c2-c2ccc4ncnn4c2)CCC3)c1` [Compound 127, 6-(2-(3-Trifluoromethoxyphenyl)-5,6-dihydro-4H-pyrrolo[1,2-b]pyrazol-3-yl)-[1,2,4]triazolo[1,5-a]pyridine]: the values for the pIC50 in assay [1] and in assay [2] were 7.44 and 7.15, respectively.

Take `FC(F)(F)Oc1cccc(-c2nn3c(c2-c2ccc4sncc4c2)CCC3)c1` [Compound 128, 5-(2-(3-Trifluoromethoxyphenyl)-5,6-dihydro-4H-pyrrolo[1,2-b]pyrazol-3-yl)benzo[d]isothiazole]: the pIC50 is 6.36 in assay [1] and 6.17 in assay [2].

`Fc1ccc(-c2nn3c(c2-c2ccc4cn[nH]c4c2)CCC3)c(F)c1F` [Compound 129, 6-(2-(2,3,4-Trifluorophenyl)-5,6-dihydro-4H-pyrrolo[1,2-b]pyrazol-3-yl)-1H-indazole]: the results for the negative-log IC50 (pIC50) in assay [1] and in assay [2] were 6.46 and 5.78, respectively.

In the case of `Fc1ccc(-c2nn3c(c2-c2ccc4nccn4c2)CCC3)c(F)c1F` [Compound 130, 6-(2-(2,3,4-Trifluoropehnyl)-5,6-dihydro-4H-pyrrolo[1,2-b]pyrazol-3-yl)imidazo[1,2-a]pyridine], the pIC50 in assay [1] is 6.50; in assay [2], 5.85.

As to `Fc1ccc(-c2nn3c(c2-c2ccc4ncsc4c2)CCC3)c(F)c1F` [Compound 131, 6-(2-(2,3,4-Trifluorophenyl)-5,6-dihydro-4H-pyrrolo[1,2-b]pyrazol-3-yl)benzo[d]thiazole], the negative-log IC50 (pIC50) in assay [1] is 6.54; in assay [2], 6.02.

As for `Fc1ccc(-c2nn3c(c2-c2ccc4nccnc4c2)CCC3)c(F)c1F` [Compound 132, 6-(2-(2,3,4-Trifluorophenyl)-5,6-dihydro-4H-pyrrolo[1,2-b]pyrazol-3-yl)quinoxaline], the values for the pIC50 in assay [1] and in assay [2] were 6.04 and 5.63, respectively.

For `Fc1ccc(-c2nn3c(c2-c2ccc4ncnn4c2)CCC3)c(F)c1F` [Compound 133, 6-(2-(2,3,4-Trifluorophenyl)-5,6-dihydro-4H-pyrrolo[1,2-b]pyrazol-3-yl)-[1,2,4]triazolo[1,5-a]pyridine], the pIC50 in assay [1] is 6.61; in assay [2], 6.15.

As to `Fc1ccccc1-c1nn2c(c1-c1ccc3cn[nH]c3c1)CCC2` [Compound 134, 6-(2-(2-Fluorophenyl)-5,6-dihydro-4H-pyrrolo[1,2-b]pyrazol-3-yl)-1H-indazole], the figures for the pIC50 in assay [1] and in assay [2] were 6.05 and 5.22, respectively.

For the compound `Fc1ccccc1-c1nn2c(c1-c1ccc3nccn3c1)CCC2` [Compound 135, 6-(2-(2-Fluorophenyl)-5,6-dihydro-4H-pyrrolo[1,2-b]pyrazol-3-yl)imidazo[1,2-a]pyridine], the figures for the pIC50 in assay [1] and in assay [2] were 6.03 and 5.67, respectively.

`Fc1ccccc1-c1nn2c(c1-c1ccc3nccnc3c1)CCC2` [Compound 136, 6-(2-(2-Fluorophenyl)-5,6-dihydro-4H-pyrrolo[1,2-b]pyrazol-3-yl)quinoxaline]: the negative logarithm of the IC50 (pIC50) in assay [1] is 6.21; in assay [2] it was 5.63.

As for `Fc1ccccc1-c1nn2c(c1-c1ccc3ncnn3c1)CCC2` [Compound 137, 6-(2-(2-Fluorophenyl)-5,6-dihydro-4H-pyrrolo[1,2-b]pyrazol-3-yl)-[1,2,4]triazolo[1,5-a]pyridine], the negative logarithm of the IC50 (pIC50) is 6.84 in assay [1] and 6.18 in assay [2].

With `Fc1c(Cl)cccc1-c1nn2c(c1-c1ccc3[nH]ncc3c1)CCC2` [Compound 138, 5-(2-(3-Chloro-2-fluorophenyl)-5,6-dihydro-4H-pyrrolo[1,2-b]pyrazol-3-yl)-1H-indazole], the pIC50 in assay [1] was 6.14; in assay [2] it was 5.83.

Regarding `Fc1c(Cl)cccc1-c1nn2c(c1-c1ccc3nccn3c1)CCC2` [Compound 139, 6-(2-(3-Chloro-2-fluorophenyl)-5,6-dihydro-4H-pyrrolo[1,2-b]pyrazol-3-yl)imidazo[1,2-a]pyridine], the negative logarithm of the IC50 (pIC50) in assay [1] was 6.44; in assay [2], 6.06.

For `Fc1c(Cl)cccc1-c1nn2c(c1-c1ccc3ncsc3c1)CCC2` [Compound 140, 6-(2-(3-Chloro-2-fluorophenyl)-5,6-dihydro-4H-pyrrolo[1,2-b]pyrazol-3-yl)benzo[d]thiazole], the pIC50 in assay [1] is 6.30; in assay [2], 6.07.

In the case of `Fc1c(Cl)cccc1-c1nn2c(c1-c1ccc3ncnn3c1)CCC2` [Compound 141, 6-(2-(3-Chloro-2-fluorophenyl)-5,6-dihydro-4H-pyrrolo[1,2-b]pyrazol-3-yl)-[1,2,4]triazolo[1,5-a]pyridine], the values for the negative logarithm of the IC50 (pIC50) in assay [1] and in assay [2] were 6.68 and 6.15, respectively.

Take `Fc1ccc(-c2nn3c(c2-c2ccc4[nH]ncc4c2)CCC3)cc1Cl` [Compound 142, 5-(2-(3-Chloro-4-fluorophenyl)-5,6-dihydro-4H-pyrrolo[1,2-b]pyrazol-3-yl)-1H-indazole]: the figures for the negative-log IC50 (pIC50) in assay [1] and in assay [2] were 6.81 and 6.46, respectively.

Turning to `Fc1ccc(-c2nn3c(c2-c2ccc4cn[nH]c4c2)CCC3)cc1Cl` [Compound 143, 6-(2-(3-Chloro-4-fluorophenyl)-5,6-dihydro-4H-pyrrolo[1,2-b]pyrazol-3-yl)-1H-indazole], the pIC50 was 6.66 in assay [1] and 6.29 in assay [2].

Regarding `Fc1ccc(-c2nn3c(c2-c2ccc4nccn4c2)CCC3)cc1Cl` [Compound 144, 6-(2-(3-Chloro-4-fluorophenyl)-5,6-dihydro-4H-pyrrolo[1,2-b]pyrazol-3-yl)imidazo[1,2-a]pyridine], the figures for the negative-log IC50 (pIC50) in assay [1] and in assay [2] were 7.00 and 6.46, respectively.

For the compound `Fc1ccc(-c2nn3c(c2-c2ccc4ncsc4c2)CCC3)cc1Cl` [Compound 145, 6-(2-(3-Chloro-4-fluorophenyl)-5,6-dihydro-4H-pyrrolo[1,2-b]pyrazol-3-yl)benzo[d]thiazole], the pIC50 is 6.71 in assay [1] and 6.24 in assay [2].

Regarding `Fc1ccc(-c2nn3c(c2-c2ccc4ncccc4c2)CCC3)cc1Cl` [Compound 146, 6-(2-(3-Chloro-4-fluorophenyl)-5,6-dihydro-4H-pyrrolo[1,2-b]pyrazol-3-yl)quinoline], the pIC50 was 5.98 in assay [1] and 5.56 in assay [2].

With `Fc1ccc(-c2nn3c(c2-c2ccc4nccnc4c2)CCC3)cc1Cl` [Compound 147, 6-(2-(3-Chloro-4-fluorophenyl)-5,6-dihydro-4H-pyrrolo[1,2-b]pyrazol-3-yl)quinoxaline], the negative-log IC50 (pIC50) was 6.69 in assay [1] and 6.16 in assay [2].

For orientation: pIC50 means the negative decadic logarithm of the IC50, by convention in mol/L.
